# In patent US20240180886A1, “INHIBITORS OF PROTEIN TYROSINE PHOSPHATASE, COMPOSITIONS, AND METHODS OF USE” (BRISTOL-MYERS SQUIBB COMPANY, priority 2022, published 2024):
# What was measured:
# PTPN2 [1] = molecular target: T1, PTPN2 (Homo sapiens (Human), UniProt P17706); experiment: PhosphoSens assay (PTPN2 BCHEM); format: biochemical; settings: substrate AQT0264 20 μM, PTPN2 150 pM
# Description: A PhosphoSens® kinase assay was performed as described by the vendor (AssayQuant Technologies, Marlborough, MA). Briefly, 1000× solutions of compounds were prepared in DMSO via serial dilution of the 10 mM DMSO stocks using 3-fold intervals in a 384-well reagent plate. 50 nL of the compound dilution series was then added to the corresponding wells of a 384-well assay plate. […] Finally, […] of 5× PTPN2 enzyme stock was added to each well of the assay plate for a final enzyme concentration of 150 pM. Reaction progress curves were collected by sampling fluorescence intensity at the excitation wavelength 360 nm (λex360) and emission wavelength 480 nm (λem480) every 71 seconds for one hour using a Synergy H4 plate reader (BioTek Instruments/Agilent Technologies, Winooski, VT) at room temperature.
# Target sequence in this assay (P17706 whole entry): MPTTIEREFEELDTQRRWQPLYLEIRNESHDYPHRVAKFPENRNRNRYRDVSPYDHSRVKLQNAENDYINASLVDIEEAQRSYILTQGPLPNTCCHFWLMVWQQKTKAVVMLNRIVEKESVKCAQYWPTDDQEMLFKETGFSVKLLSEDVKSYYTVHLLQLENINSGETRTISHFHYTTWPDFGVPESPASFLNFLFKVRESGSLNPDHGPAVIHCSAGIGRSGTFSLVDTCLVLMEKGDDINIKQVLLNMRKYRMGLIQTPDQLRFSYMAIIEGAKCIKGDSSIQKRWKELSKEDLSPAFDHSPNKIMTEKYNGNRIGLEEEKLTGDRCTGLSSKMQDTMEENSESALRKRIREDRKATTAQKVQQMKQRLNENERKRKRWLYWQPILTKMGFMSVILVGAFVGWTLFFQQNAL
# PTPN2 [2] = molecular target: T1, PTPN2; experiment: Phosphatase activity assay using DiFMUP as substrate; format: biochemical; settings: PTPN2 0.15 nM, 10 mM DTT
# Description: The PTPN2 biochemical assay was performed as follows, a 5× stock solution of human PTPN2 (SRP5075, MilliporeSigma, Burlington, MA) and a 1.25× stock solution of DiFMUP (D6567, ThermoFisher Scientific, Waltham, MA), were prepared in 1× reaction buffer consisting of 50 mM HEPES, pH 7.4, 1 mM EDTA, 150 mM NaCl, 0.2 mg/mL BSA, 100 U/mL catalase and 10 mM DTT. […] of the DiFMUP substrate solution, for a final concentration of […] DiFMUP substrate, was added to a Corning 3574 384-well, white, non-binding surface microtiter plate containing […] of serially diluted test compounds prepared in DMSO. The reactions were started with the addition of […] of the enzyme solution, for a final PTPN2 concentration of 0.15 nM, and monitored every 105 seconds for 60 minutes at λEX 360/λEM 460 in a BioTek Synergy HTX plate reader (Agilent Technologies, Santa Clara, CA) at room temperature. The initial linear portions of the progress curves were fit according to a linear equation to yield the slopes and converted to % inhibition based on a value of 100% activity for the no inhibitor treated control. IC50 values of each compound were obtained by fitting the % inhibition-compound concentration curves using Dotmatics software (Dotmatics, Bishops Stortford, Hertfordshire, England),
# Target sequence in this assay (P17706 other isoform, or with tags, fused parts or gaps isoform P17706-2): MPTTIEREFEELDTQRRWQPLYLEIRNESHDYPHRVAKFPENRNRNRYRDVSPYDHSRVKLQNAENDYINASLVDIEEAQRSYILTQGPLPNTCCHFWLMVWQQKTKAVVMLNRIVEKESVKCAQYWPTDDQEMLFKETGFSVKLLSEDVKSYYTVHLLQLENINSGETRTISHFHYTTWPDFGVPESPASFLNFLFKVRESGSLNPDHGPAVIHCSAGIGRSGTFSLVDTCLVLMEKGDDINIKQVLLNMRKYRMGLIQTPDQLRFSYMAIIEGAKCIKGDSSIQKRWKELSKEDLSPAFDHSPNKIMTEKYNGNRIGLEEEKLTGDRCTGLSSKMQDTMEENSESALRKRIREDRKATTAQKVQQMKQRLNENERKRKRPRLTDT
# [3] = tested on: phosphorylated STAT1 in B16-F10 cells; experiment: Phospho-STAT1 (Tyr701) HTRF assay in B16-F10 cells with IFN-gamma; format: cell-based; settings: mouse IFN-gamma 100 ng/mL, 1 hour, read-out: pSTAT1 HTRF B16F10 EC50
# Description: B16-F10 cells (ATCC, Manassas, VA, #CRL-6475) were cultured in DMEM growth medium (ThermoFisher Scientific, Waltham, MA, #11995-040) supplemented with 10% heat-inactivated FBS (ThermoFisher Scientific, #16140-071) and 1% pen/strep (ThermoFisher Scientific, #15140-122). The cells were seeded into a white opaque 384-well tissue culture treated microplate (PerkinElmer, Waltham, MA, #6007688) at a density of 10,000 cells/well in 20 uL total volume and incubated overnight at 37 C and 5% CO2. 30 nL of compounds dissolved in DMSO were then transferred from a source plate into target wells with the Echo650 acoustic liquid handler (Beckman Coulter, Indianapolis, IN). Negative control wells received 30 nL of DMSO only (0.15% final concentration). Plates were returned to the incubator for 1 hour and then cells were treated with either 5 uL of growth medium or 5 uL of growth medium containing 500 ng/mL of recombinant mouse IFN-gamma protein (R&D Systems, Minneapolis, MN, #485-MI/CF, 100 ng/mL final concentration) using the Assist automated pipetting platform (INTEGRA Biosciences, Hudson, NH). Plates were incubated at 37 C for 1 hour and assayed for phosphorylated STAT1 protein levels with the phospho-STAT1 (Tyr701) HTRF kit (Cisbio, Bedford, MA, #63ADK026PEH) according to the manufacturer's instructions.
# B16-F10 cells = experiment: Cell proliferation assay (CellTiter-Glo) in B16-F10 cells with IFN-gamma; format: cell-based; settings: 120 h, mouse IFN-gamma 10 ng/mL, read-out: PTPN2 Prolif 5d B16F10 EC50
IC50 (PTPN2 [1]),IC50 (PTPN2 [2]),EC50 [3],EC50 (B16-F10 cells),Structure (SMILES)
50 nM,950 nM,3930 nM,6250 nM,"O=C1CN(c2c(O)cc(CNc3ccc(-c4ccccc4)cn3)cc2F)S(=O)(=O)N1 [EXAMPLE 8, 5-[2-fluoro-6-hydroxy-4-[[(5-phenyl-2-pyridyl)amino]methyl]phenyl]-1,1-dioxo-1,2,5-thiadiazolidin-3-one]"
4 nM,4 nM,70 nM,120 nM,"COc1cc(NCc2cc(O)c(N3CC(=O)NS3(=O)=O)c(F)c2)ncc1C [EXAMPLE 9, 5-[2-fluoro-6-hydroxy-4-[[(4-methoxy-5-methyl-2-pyridyl)amino]methyl]phenyl]-1,1-dioxo-1,2,5-thiadiazolidin-3-one]"
3 nM,40 nM,570 nM,610 nM,"O=C1CN(c2c(O)cc(CNc3ccc(C4CC4)cn3)cc2F)S(=O)(=O)N1 [EXAMPLE 10, 5-[4-[[(5-cyclopropyl-2-pyridyl)amino]methyl]-2-fluoro-6-hydroxy-phenyl]-1,1-dioxo-1,2,5-thiadiazolidin-3-one]"
40 nM,100 nM,1990 nM,3130 nM,"N#Cc1ccnc(NCc2cc(O)c(N3CC(=O)NS3(=O)=O)c(F)c2)c1 [EXAMPLE 11, 2-[[3-fluoro-5-hydroxy-4-(1,1,4-trioxo-1,2,5-thiadiazolidin-2-yl)phenyl]methylamino]pyridine-4-carbonitrile]"
10 nM,10 nM,90 nM,140 nM,"COc1ccnc(NCc2cc(O)c(N3CC(=O)NS3(=O)=O)c(F)c2)c1 [EXAMPLE 12, 5-[2-fluoro-6-hydroxy-4-[[(4-methoxy-2-pyridyl)amino]methyl]phenyl]-1,1-dioxo-1,2,5-thiadiazolidin-3-one]"
2 nM,6 nM,260 nM,230 nM,"CCc1ccnc(NCc2cc(O)c(N3CC(=O)NS3(=O)=O)c(F)c2)c1 [EXAMPLE 13, 5-[4-[[(4-ethyl-2-pyridyl)amino]methyl]-2-fluoro-6-hydroxy-phenyl]-1,1-dioxo-1,2,5-thiadiazolidin-3-one]"
10 nM,10 nM,750 nM,610 nM,"Cc1ccc(NCc2cc(O)c(N3CC(=O)NS3(=O)=O)c(F)c2)nc1 [EXAMPLE 14, 5-[2-fluoro-6-hydroxy-4-[[(5-methyl-2-pyridyl)amino]methyl]phenyl]-1,1-dioxo-1,2,5-thiadiazolidin-3-one]"
110 nM,460 nM,5020 nM,6480 nM,"Cc1cccnc1NCc1cc(O)c(N2CC(=O)NS2(=O)=O)c(F)c1 [EXAMPLE 15, 5-[2-fluoro-6-hydroxy-4-[[(3-methyl-2-pyridyl)amino]methyl]phenyl]-1,1-dioxo-1,2,5-thiadiazolidin-3-one]"
20 nM,200 nM,1240 nM,1030 nM,"O=C1CN(c2c(O)cc(CNc3cc(F)ccn3)cc2F)S(=O)(=O)N1 [EXAMPLE 16, 5-[2-fluoro-4-[[(4-fluoro-2-pyridyl)amino]methyl]-6-hydroxy-phenyl]-1,1-dioxo-1,2,5-thiadiazolidin-3-one]"
1 nM,4 nM,80 nM,160 nM,"Cc1cccc(NCc2cc(O)c(N3CC(=O)NS3(=O)=O)c(F)c2)n1 [EXAMPLE 17, 5-[2-fluoro-6-hydroxy-4-[[(6-methyl-2-pyridyl)amino]methyl]phenyl]-1,1-dioxo-1,2,5-thiadiazolidin-3-one]"
2 nM,5 nM,310 nM,190 nM,"Cc1ccc(NCc2cc(O)c(N3CC(=O)NS3(=O)=O)c(F)c2)nc1C [EXAMPLE 19, 5-[4-[[(5,6-dimethyl-2-pyridyl)amino]methyl]-2-fluoro-6-hydroxy-phenyl]-1,1-dioxo-1,2,5-thiadiazolidin-3-one]"
80 nM,190 nM,3600 nM,3950 nM,"Cc1ccc(C)c(NCc2cc(O)c(N3CC(=O)NS3(=O)=O)c(F)c2)n1 [EXAMPLE 20, 5-[4-[[(3,6-dimethyl-2-pyridyl)amino]methyl]-2-fluoro-6-hydroxy-phenyl]-1,1-dioxo-1,2,5-thiadiazolidin-3-one]"
80 nM,170 nM,2970 nM,2470 nM,"COc1ccc(C)nc1NCc1cc(O)c(N2CC(=O)NS2(=O)=O)c(F)c1 [EXAMPLE 22, 5-[2-fluoro-6-hydroxy-4-[[(3-methoxy-6-methyl-2-pyridyl)amino]methyl]phenyl]-1,1-dioxo-1,2,5-thiadiazolidin-3-one]"
30 nM,510 nM,1510 nM,14100 nM,"CCc1cccnc1NCc1cc(O)c(N2CC(=O)NS2(=O)=O)c(F)c1 [EXAMPLE 23, 5-[4-[[(3-ethyl-2-pyridyl)amino]methyl]-2-fluoro-6-hydroxy-phenyl]-1,1-dioxo-1,2,5-thiadiazolidin-3-one]"
100 nM,80 nM,5400 nM,4560 nM,"Cc1cnc(NCc2cc(O)c(N3CC(=O)NS3(=O)=O)c(F)c2)c(C)c1 [EXAMPLE 24, 5-[4-[[(3,5-dimethyl-2-pyridyl)amino]methyl]-2-fluoro-6-hydroxy-phenyl]-1,1-dioxo-1,2,5-thiadiazolidin-3-one]"
90 nM,130 nM,10200 nM,7670 nM,"Cc1ccnc(NCc2cc(O)c(N3CC(=O)NS3(=O)=O)c(F)c2)c1C [EXAMPLE 25, 5-[4-[[(3,4-dimethyl-2-pyridyl)amino]methyl]-2-fluoro-6-hydroxy-phenyl]-1,1-dioxo-1,2,5-thiadiazolidin-3-one]"
10 nM,10 nM,340 nM,740 nM,"COc1cnc(NCc2cc(O)c(N3CC(=O)NS3(=O)=O)c(F)c2)cc1OC [EXAMPLE 26, 5-[4-[[(4,5-dimethoxy-2-pyridyl)amino]methyl]-2-fluoro-6-hydroxy-phenyl]-1,1-dioxo-1,2,5-thiadiazolidin-3-one]"
1 nM,2 nM,130 nM,280 nM,"Cc1cnc(NCc2cc(O)c(N3CC(=O)NS3(=O)=O)c(F)c2)cc1C [EXAMPLE 28, 5-[4-[[(4,5-dimethyl-2-pyridyl)amino]methyl]-2-fluoro-6-hydroxy-phenyl]-1,1-dioxo-1,2,5-thiadiazolidin-3-one]"
20 nM,140 nM,1780 nM,1720 nM,"COc1cnc(NCc2cc(O)c(N3CC(=O)NS3(=O)=O)c(F)c2)c(OC)c1 [EXAMPLE 30, 5-[4-[[(3,5-dimethoxy-2-pyridyl)amino]methyl]-2-fluoro-6-hydroxy-phenyl]-1,1-dioxo-1,2,5-thiadiazolidin-3-one]"
20 nM,50 nM,1190 nM,1530 nM,"Cc1cc(NCc2cc(O)c(N3CC(=O)NS3(=O)=O)c(F)c2)ncc1F [EXAMPLE 31, 5-[2-fluoro-4-[[(5-fluoro-4-methyl-2-pyridyl)amino]methyl]-6-hydroxy-phenyl]-1,1-dioxo-1,2,5-thiadiazolidin-3-one]"
